Test results from patent US12060388B2, “Cell-penetrating peptides and methods of use thereof” (priority 2018, dated 2024).

Tests used:
Type in all cases: cell-based
SV40 = SV40 infection of HeLa-S3 cells, flow cytometry for large T antigen; settings: 14 μM, MOI of ~1, 48 h.p.i.
Procedure: HeLa-S3 cells were treated with 14 μM P16/16 peptide or vehicle for one hour then infected with SV40 at MOI of ˜1. Forty-eight h.p.i., cells were washed, fixed, and permeabilized with cold methanol for 30 min. Cells were stained for intracellular SV40 large T antigen with fluorophore-conjugated monoclonal antibody PAb101, followed by flow cytometry. The histograms show number of cells and […] fluorescence in the absence or presence of peptide. Traces correspond to mock-infected cells (Line C), mock-infected cells in the presence of peptides (Line D), SV40-infected cells (Line A), and SV40-infected cells in the presence of peptides (Line B).
For studies of SV40 infection, 7.5×105 HeLa-S3 in 6-well plates were incubated with peptides prior to infection. Cells were infected with a crude preparation of SV40 at MOI of ˜1 and fixed with 4% paraformaldehyde at 48 h.p.i. Samples were stained with FITC-conjugated anti-large T antigen antibody (Pab101) (Santa Cruz, pSC147 FITC), followed by flow cytometry to determine the mean fluorescent intensity of T antigen staining.

EEA1 / HPV16 L1 = assay: Proximity ligation assay for L1 and EEA1 in peptide-treated infected cells; settings: 14 μM
Procedure: HeLa-S3 cells grown on glass coverslips for 16 hours were incubated for one hour with or without 14 μM P16/16, followed by mock-infection or infection with HPV16 PSV at MOI of 200. 8 and 16 h.p.i., cells were processed for PLA with anti-L1 antibody and an antibody recognizing EEA1 (FIG. 20A) or TGN46 (FIG. 20B). PLA was performed as in FIG. 19B. The PLA signal for EEA1/L1 was normalized to that of cells infected with HPV16 PsV in the absence of peptide at 8 h.p.i., while the TGN46/L1 signal was normalized to untreated cells at 16 h.p.i.
(§1) For the proximity ligation assay, after an hour incubation with peptides, HeLa-S3 cells were infected with wild-type PSV at MOI of 200 or mutant PsV containing the same number of reporter plasmid genomes. Infected cells were fixed at 8 or 16 h.p.i., permeabilized, and incubated with 1:100 dilutions of anti-L1 antibody and an antibody recognizing EEA1, TGN46, or VPS35. […] The nuclei were stained by using Abcam fluorescence mounting medium with DAPI and images were acquired by a Leica SP5 inverted fluorescence microscope. […] The images were processed by Fiji and quantitatively analyzed by BlobFinder software to measure total fluorescence intensity in each sample. The average fluorescence intensity per cell in each sample was normalized to the control sample as indicated in each experiment. […]

[1] = system: retromer subunit VPS35 / HPV16 L1; assay: Proximity ligation assay for HPV16 L1 and VPS35 in peptide-treated infected cells; settings: 14 μM, MOI of 200, eight h.p.i.
Procedure: FIG. 19A depicts uninfected HeLa cells were incubated with 14 μM bP16/16 or bPDM/16 for three hours (“b” refers to peptides with an N-terminal biotin moiety). Cells were then fixed, permeabilized, and stained with AlexaFluor-streptavidin (green) and with anti-VPS35 (red). Overlapping signal is pseudocolored yellow. Nuclei were stained blue with DAPI. Mander's correlation coefficients for overlap between streptavidin and VPS35 staining are shown at right, with each spot representing an individual cell. Approximately 100 cells were analyzed for each condition. […] Images were processed by Fiji and quantitatively analyzed by BlobFinder software to measure total fluorescence intensity per cell in each sample. […]
as §1, with “genomes.” for “genomes. Infected cells were fixed at 8 or 16 h.p.i., permeabilized, and incubated with 1:100 dilutions of anti-L1 antibody and an antibody recognizing EEA1, TGN46, or VPS35.”

[2] = system: HPV16 PsV containing GFP11-tagged L2; assay: Split GFP assay with peptide, HaCaT/GFP1-10NES cells; settings: 30 μM, MOI of 2000, three h.p.i.
Procedure: FIG. 26A depicts clonal HaCaT/GFP1-10NES cells expressing cytosolic GFP1-10 infected at MOI of 2000 with untagged HPV16 or with HPV16 PsV containing GFP11-tagged L2 in the absence or presence of 30 μM P16/16. Three h.p.i., cells were stained with Hoescht 33342 to visualize nuclei (blue) and examined by confocal microscopy for GFP fluorescence. FIG. 26B the corrected total cellular fluorescence (CTCF) of each cell was calculated and plotted in arbitrary units from three independent experiments. n.s., not significant. FIG. 26C depicts HaCaT/GFP-10NES cells infected as described in FIG. 26A with wild-type HPV16 PsV in the presence of 30 μM P16/16 or in its absence for three hours, followed by removal of PsV and incubation with medium containing peptide for an additional 48 hours. Cells were assessed by flow cytometry to determine reporter protein expression. Infectivity was normalized with that in the absence of peptide. **, p<0.01.
To determine if the cytoplasmic protrusion of L2 of PsV is inhibited by peptides, the split GFP assay was performed. 3×104 clonal HaCaT/GFP1-10NES expressing GFP1-10NES in the cytoplasm were seeded in eight-chambered glass slides and incubated with peptides for an hour prior to infection at MOI of ˜2000 with HPV16 PsV containing wild-type L2 or L2 containing inserted GFP11. […]

CC[C@H](C)[C@H](NC(=O)[C@@H](NC(=O)[C@H](Cc1ccc(O)cc1)NC(=O)[C@H](CCC(N)=O)NC(=O)[C@@H]1CCCN1C(=O)[C@H](CO)NC(=O)[C@@H](N)CS)[C@@H](C)O)C(=O)N[C@H](C(=O)N[C@@H](C)C(=O)N[C@@H](CC(=O)O)C(=O)N[C@@H](C)C(=O)NCC(=O)N[C@@H](CC(=O)O)C(=O)N[C@@H](Cc1ccccc1)C(=O)N[C@@H](Cc1ccc(O)cc1)C(=O)N[C@@H](CC(C)C)C(=O)N[C@@H](Cc1c[nH]cn1)C(=O)N1CCC[C@H]1C(=O)N[C@@H](CO)C(=O)N[C@@H](Cc1ccc(O)cc1)C(=O)N[C@@H](Cc1ccc(O)cc1)C(=O)N[C@@H](CCSC)C(=O)N[C@@H](CC(C)C)C(=O)N[C@@H](CCCNC(=N)N)C(=O)N[C@@H](CCCCN)C(=O)N[C@@H](CCCNC(=N)N)C(=O)N[C@@H](CCCNC(=N)N)C(=O)N[C@@H](CCCCN)C(=O)N[C@@H](CCCNC(=N)N)C(=O)O)[C@@H](C)CC [P16/16]
inhibition of SV40 infection (SV40): did not inhibit | EEA1/L1 PLA at 8 h.p.i. (EEA1 / HPV16 L1; MOI of 200, 8 h.p.i.): arrival of HPV at the endosome regardless of the presence of the peptide | EEA1/L1 PLA at 16 h.p.i. (EEA1 / HPV16 L1; MOI of 200, 16 h.p.i.): striking accumulation of the virus in the endosome | interaction of retromer with HPV (VPS35/L1 PLA) [1]: inhibited the interaction of retromer with HPV | protrusion of L2 C terminus into the cytoplasm (reconstituted GFP) [2]: did not inhibit protrusion of the C terminus of the L2 protein into the cytoplasm
